Calls of active or inactive are those of the source. The rule behind the calls is not given here.
Tested on: CCRIS mutagenicity, Ames/micronucleus/aberration tests
Test: CCRIS mutagenicity studies

Measured: mutagenic call

CCC(C)Nc1ccc(NC(C)CC)cc1 (stereo not given)
inactive: End Point: IN VITRO CHROMOSOMAL ABERRATIONS, Test System: CHINESE HAMSTER LUNG CELLS (CHL), Metabolic Activation: RAT, LIVER, S-9, KC-400 inactive; negative | End Point: IN VITRO CHROMOSOMAL ABERRATIONS, Test System: CHINESE HAMSTER OVARY CELLS (CHO), Metabolic Activation: NONE inactive; negative | End Point: IN VITRO CHROMOSOMAL ABERRATIONS, Test System: CHINESE HAMSTER OVARY CELLS (CHO), Metabolic Activation: RAT, LIVER, S-9, AROCLOR 1254 inactive; negative | Test System: AMES SALMONELLA TYPHIMURIUM, Strain/Indicator: TA97, Metabolic Activation: HAMSTER, LIVER, S-9, AROCLOR 1254 (10%), Method: PREINCUBATION inactive; negative | Test System: AMES SALMONELLA TYPHIMURIUM, Strain/Indicator: TA97, Metabolic Activation: HAMSTER, LIVER, S-9, AROCLOR 1254 (30%), Method: PREINCUBATION inactive; negative | Test System: AMES SALMONELLA TYPHIMURIUM, Strain/Indicator: TA97, Metabolic Activation: NONE, Method: PREINCUBATION inactive; negative | Test System: AMES SALMONELLA TYPHIMURIUM, Strain/Indicator: TA97, Metabolic Activation: RAT, LIVER, S-9, AROCLOR 1254 (10%), Method: PREINCUBATION inactive; negative | Test System: AMES SALMONELLA TYPHIMURIUM, Strain/Indicator: TA97, Metabolic Activation: RAT, LIVER, S-9, AROCLOR 1254 (30%), Method: PREINCUBATION inactive; negative | Test System: AMES SALMONELLA TYPHIMURIUM, Strain/Indicator: TA98, Metabolic Activation: HAMSTER, LIVER, S-9, AROCLOR 1254 (10%), Method: PREINCUBATION inactive; negative | Test System: AMES SALMONELLA TYPHIMURIUM, Strain/Indicator: TA98, Metabolic Activation: HAMSTER, LIVER, S-9, AROCLOR 1254 (30%), Method: PREINCUBATION inactive; negative | Test System: AMES SALMONELLA TYPHIMURIUM, Strain/Indicator: TA98, Metabolic Activation: NONE, Method: PREINCUBATION inactive; negative | Test System: AMES SALMONELLA TYPHIMURIUM, Strain/Indicator: TA98, Metabolic Activation: RAT, LIVER, S-9, AROCLOR 1254 (10%), Method: PREINCUBATION inactive; negative | Test System: AMES SALMONELLA TYPHIMURIUM, Strain/Indicator: TA98, Metabolic Activation: RAT, LIVER, S-9, AROCLOR 1254 (30%), Method: PREINCUBATION inactive; negative | Test System: AMES SALMONELLA TYPHIMURIUM, Strain/Indicator: TA100, Metabolic Activation: HAMSTER, LIVER, S-9, AROCLOR 1254 (5%), Method: PREINCUBATION inactive; negative | Test System: AMES SALMONELLA TYPHIMURIUM, Strain/Indicator: TA100, Metabolic Activation: HAMSTER, LIVER, S-9, AROCLOR 1254 (10%), Method: PREINCUBATION inactive; negative | Test System: AMES SALMONELLA TYPHIMURIUM, Strain/Indicator: TA100, Metabolic Activation: HAMSTER, LIVER, S-9, AROCLOR 1254 (30%), Method: PREINCUBATION inactive; negative | Test System: AMES SALMONELLA TYPHIMURIUM, Strain/Indicator: TA100, Metabolic Activation: NONE, Method: PREINCUBATION inactive; negative | Test System: AMES SALMONELLA TYPHIMURIUM, Strain/Indicator: TA100, Metabolic Activation: RAT, LIVER, S-9, AROCLOR 1254 (5%), Method: PREINCUBATION inactive; negative | Test System: AMES SALMONELLA TYPHIMURIUM, Strain/Indicator: TA100, Metabolic Activation: RAT, LIVER, S-9, AROCLOR 1254 (30%), Method: PREINCUBATION inactive; negative | Test System: AMES SALMONELLA TYPHIMURIUM, Strain/Indicator: TA100, Metabolic Activation: RAT,LIVER, S-9, AROCLOR 1254 (10%), Method: PREINCUBATION inactive; negative | Test System: AMES SALMONELLA TYPHIMURIUM, Strain/Indicator: TA1535, Metabolic Activation: HAMSTER, LIVER, S-9, AROCLOR 1254 (10%), Method: PREINCUBATION inactive; negative | Test System: AMES SALMONELLA TYPHIMURIUM, Strain/Indicator: TA1535, Metabolic Activation: HAMSTER, LIVER, S-9, AROCLOR 1254 (30%), Method: PREINCUBATION inactive; negative | Test System: AMES SALMONELLA TYPHIMURIUM, Strain/Indicator: TA1535, Metabolic Activation: NONE, Method: PREINCUBATION inactive; negative | Test System: AMES SALMONELLA TYPHIMURIUM, Strain/Indicator: TA1535, Metabolic Activation: RAT, LIVER, S-9, AROCLOR 1254 (10%), Method: PREINCUBATION inactive; negative | Test System: AMES SALMONELLA TYPHIMURIUM, Strain/Indicator: TA1535, Metabolic Activation: RAT, LIVER, S-9, AROCLOR 1254 (30%), Method: PREINCUBATION inactive; negative

CC12CCC(=O)NC1=CCC1C2CCC2(C)C(OC(=O)CCCc3ccc(N(CCCl)CCCl)cc3)CCC12 (stereo not given)
active: Test System: AMES SALMONELLA TYPHIMURIUM, Strain/Indicator: TA100, Metabolic Activation: NONE, Method: STANDARD PLATE active; positive | Test System: AMES SALMONELLA TYPHIMURIUM, Strain/Indicator: TA100, Metabolic Activation: RAT, LIVER, S-9, AROCLOR 1254, Method: STANDARD PLATE active; positive | Test System: AMES SALMONELLA TYPHIMURIUM, Strain/Indicator: TA1535, Metabolic Activation: NONE, Method: STANDARD PLATE active; positive | Test System: AMES SALMONELLA TYPHIMURIUM, Strain/Indicator: TA1535, Metabolic Activation: RAT, LIVER, S-9, AROCLOR 1254, Method: STANDARD PLATE active; positive
inactive: Test System: AMES SALMONELLA TYPHIMURIUM, Strain/Indicator: TA98, Metabolic Activation: NONE, Method: STANDARD PLATE inactive; negative | Test System: AMES SALMONELLA TYPHIMURIUM, Strain/Indicator: TA98, Metabolic Activation: RAT, LIVER, S-9, AROCLOR 1254, Method: STANDARD PLATE inactive; negative | Test System: AMES SALMONELLA TYPHIMURIUM, Strain/Indicator: TA102, Metabolic Activation: NONE, Method: STANDARD PLATE inactive; negative | Test System: AMES SALMONELLA TYPHIMURIUM, Strain/Indicator: TA102, Metabolic Activation: RAT, LIVER, S-9, AROCLOR 1254, Method: STANDARD PLATE inactive; negative | Test System: AMES SALMONELLA TYPHIMURIUM, Strain/Indicator: TA1537, Metabolic Activation: NONE, Method: STANDARD PLATE inactive; negative | Test System: AMES SALMONELLA TYPHIMURIUM, Strain/Indicator: TA1537, Metabolic Activation: RAT, LIVER, S-9, AROCLOR 1254, Method: STANDARD PLATE inactive; negative

Cc1cc2cccc3ccc4cc5ccccc5c1c4c32
active: Test System: AMES SALMONELLA TYPHIMURIUM, Strain/Indicator: TA100, Metabolic Activation: RAT, INTACT HEPATOCYTES, AROCLOR 1254, Method: PREINCUBATION active; positive | Test System: AMES SALMONELLA TYPHIMURIUM, Strain/Indicator: TA100, Metabolic Activation: RAT, NADPH-FORTIFIED HOMOGENIZED HEPATOCYTES, AROCLOR 1254, Method: PREINCUBATION active; positive

O=CNNc1nc(-c2ccc([N+](=O)[O-])o2)cs1
active: Test System: AMES SALMONELLA TYPHIMURIUM, Strain/Indicator: TA100, Metabolic Activation: RAT, LIVER, S-9, KC500 OR PHENOBARBITAL, Method: LIQUID SUSPENSION active; positive | Test System: E. COLI, Strain/Indicator: WP2, Metabolic Activation: NONE, Method: SPOT active; positive | Test System: E. COLI, Strain/Indicator: WP2 UVRA, Metabolic Activation: NONE, Method: SPOT active; positive
